Test results from ChEMBL document CHEMBL1201862, “PubChem BioAssay data set” (2004).
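Following 48 hours of exposure in 96-well plates, responses at five concentrations were used to interpolate endpoints linearly. GI50 = concentration required for 50% inhibition of growth.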 Active and inactive are the calls of the source. Cut-off read from the data, not from the text of the source: active = GI50 up to about 1.1 µM and inactive = higher.

Legend:
Test in all cases: inhibition of tumour cell growth, NCI panel, 48 h
HOP-92 = tested on: HOP-92
SF-295 = tested on: SF-295
SK-OV-3 = tested on: SK-OV-3
SK-MEL-5 = tested on: SK-MEL-5
COLO 205 = tested on: COLO 205
NCI-H226 = tested on: NCI-H226
MOLT-4 = tested on: MOLT-4
DLD-1 = tested on: DLD-1
UACC-62 = tested on: UACC-62
UACC-257 = tested on: UACC-257
HCC 2998 = tested on: HCC 2998
SNB-75 = tested on: SNB-75
HL-60 = tested on: HL-60
HT-29 = tested on: HT-29
SW-620 = tested on: SW-620
Malme-3M = tested on: Malme-3M

Measured: GI50

N#CCCN(CCC#N)c1ccc(/C=C(\NC(=O)c2cc([N+](=O)[O-])ccc2Cl)C(=O)Nc2ccccc2)cc1
inactive: HOP-92 > 100 µM | SF-295 64.6 µM | SK-OV-3 > 100 µM | SK-MEL-5 > 100 µM | COLO 205 67.9 µM | NCI-H226 64.9 µM | MOLT-4 32.2 µM | DLD-1 18.5 µM | UACC-62 4.52 µM

Cc1cc(O)nc(NN2C(Cl)C(=O)C2c2ccc([N+](=O)[O-])cc2)n1 (centres undefined)
inactive: UACC-257 16 µM | HOP-92 13.7 µM | HCC 2998 15.3 µM | SK-MEL-5 13.5 µM | COLO 205 18.6 µM | SNB-75 2.58 µM | HL-60 4.12 µM | HT-29 15.6 µM | SW-620 20.5 µM | MOLT-4 8.13 µM | UACC-62 3.31 µM

CCCCN1C(=O)NC(Cc2ccccc2)C1=O (centres undefined)
inactive: UACC-257 > 100 µM | SF-295 > 100 µM | HCC 2998 > 100 µM | SNB-75 > 100 µM | HT-29 > 100 µM | NCI-H226 > 100 µM | Malme-3M > 100 µM | SW-620 > 100 µM | DLD-1 > 100 µM
